Each structure is given as a SMILES string.

Usually logP stands for a log measure of how a compound divides between an organic and an aqueous phase. A lower logP goes with lower lipophilicity. For the compound `Fc1cncc(Cl)n1`, the log partition coefficient (logP) turned out to be 1.16.

`CCCOc1cncc(Cl)n1` gave a logP of 2.71.

For the compound `NC(=O)c1cncc(Cl)n1`, the logP was determined as 0.28. For `COc1cncc(Cl)n1`, the logP worked out at 1.65. `COC(=O)c1cncc(Cl)n1` showed a logP of 0.47. As for `CN(C)c1cncc(Cl)n1`, the figure is 1.95; as for `Cc1cncc(Cl)n1`, 1.04; as for `CCOc1cncc(Cl)n1`, 2.22.

In the case of `N#Cc1cncc(Cl)n1`, the logP was 0.79.

Regarding `CC(=O)Nc1cncc(Cl)n1`, the logP was 1.1. Regarding `Clc1cncc(Cl)n1`, the logP was 1.53. As for `Nc1cncc(Cl)n1`, the figure is 0.95.
